The source of these data is patent US7985836B2, “Antimicrobial peptides and methods of identifying the same” (priority 2006, dated 2011).

Data set [1] is described as follows: Analytical reversed-phase HPLC retention time as a measure of hydrophobicity. Format: physicochemical. As to conditions: for tRP, retention time on a reverse-phase column of HPLC as a measure of hydrophobicity: Table 4, 1 ml/min; for tRP, retention time on a reverse-phase column of HPLC as a measure of hydrophobicity / tRP, retention time on a reversed-phase HPLC column as a measure of hydrophobicity: Vydac C18, acetonitrile 5% to 95%; for tRP, retention time on a reversed-phase HPLC column as a measure of hydrophobicity: Table 1, 1 mL/min, ~25° C. How it is done: Analytical Reversed-Phase HPLC. The retention time of the peptide was measured on an ISCO (Lincoln, Nebr.) HPLC system equipped with a Vydac (Hesperia, Calif.) C18 reversed-phase column (250×4.6 mm) at an ambient temperature of ˜25° C. The peptide was eluted with a linear gradient of acetonitrile (containing 0.1% TFA) from 5% to 95% at a flow rate of 1 mL/min. Peptides were detected by UV absorbance at 215 nm.
Analytical reverse-phase HPLC. The retention time of each peptide was measured on an ISCO HPLC system equipped with aVydac C18 reverse-phase column (250×4.6 mm). The peptide was eluted with a linear gradient of acetonitrile (containing 0.1% TFA) from 5% to 95% at a flow rate of 1 ml/min. Peptides were detected by UV absorbance at 215 nm.

For a further data set, the system named is wild type E. coli K12. Format: cell-based. Here is the method:
Antibacterial Assays. The antibacterial activity of the LL-37 peptides and its analogues was analyzed using the standard approach of microdilution (Wang et al. (2005) J. Biol. Chem., 280:5803-5811; Yu et al. (2002) J. Pept. Res., 60:1-9). In brief, a small culture of wild type E. coli K12 was grown overnight. A fresh culture was inoculated with a small aliquot of the overnight culture and incubated at 37° C. until the optical density reached the mid-logarithmic stage. The culture (90 μL each) was then diluted to an A600 of 0.001 and partitioned into a 96-well plate with ˜10^6 cells per well. […] Each peptide assay was repeated 3 times. The plate was then further incubated at 37° C. overnight (˜16 hours) and read on an Ultra Microplate Reader at 620 nm (Bio-TEK Instruments; Winooski, Vt.).

Another data set deals with Escherichia coli D21. The conditions noted are these: Escherichia coli D21, previous assays (Johansson 1998; Oren 1999); cited from earlier work.
Data set [2] can be described thus: Cytotoxicity MTT assay, HBMEC. Format: cell-based. The conditions noted are these: normal human cells, peptide concentration that kills 50% of the cells, 68 hours of exposure, read-out: HBMEC LC50. How it is done: (§1) Anticancer Assays. Cytotoxicity studies were performed using the calorimetric MTT assays for assessing cell viability (Mark et al. (1999) Life Sci., 64:1941-1953; Hansen et al. (1989) J. Immunol. Methods, 119:203-210). Three cell lines were used, including drug-resistant KBv, drug-sensitive KB, and the nontransformed human brain microvessel endothelial cells (HBMEC). In brief, the cells were seeded onto 96-well plates at a density of 5000 cells per well. The cells were exposed to various concentrations (5-320 μM) of LL-37 peptides (triplicate assays for each) 24 hours after seeding. After 68 hours of exposure, the peptide solution was replaced with fresh media and followed by cytotoxicity analysis using the MTT assay.
(§2) The MTT assay was performed by incubating the cells with 5 mg/mL of 3-[4,5-dimethylthiazol-2-yl]-2,5-dephenyltetrazolium bromide (MTT) for 2 hours at 37° C. The cells were then solubilized in a 50:50 mixture of dimethyl formamide (DMF) and H2O containing 20% SDS (pH 4.7). The plates were read after overnight incubation. Viability is directly proportional to the amount of metabolic conversion of MTT to formazin in the mitochondria of living cells and is assessed by measuring the absorbance at 550 nm using a Microkinetics Reader (Fisher Biotech). Viability is expressed as a percent of control cells receiving only culture media without any peptides. The data from the cytotoxicity studies were plotted using Microsoft Excel, and the LC50 (concentration resulting in 50% reduction in cell viability) and standard deviations were determined for each peptide.

In a further data set the test system is drug-sensitive KB. Format: cell-based. The conditions noted are these: peptide concentration that kills 50% of the cells; MTT, 68 hours of exposure. Here is the method: as §1, §2
The subject of a further data set is drug-resistant KBv. Nature of the data set: Anticancer/cytotoxicity MTT assay, KBv cells. Format: cell-based. As to conditions: peptide concentration that kills 50% of the cells, 68 hours of exposure, read-out: KBv LC50. Here is the method: as §1, §2
The test system of data set [3] is E. coli strain K12 3000. The conditions noted are these: minimum concentration at which E. coli growth is completely inhibited; from Wang et al. (2005) J. Biol. Chem. 280:5803; cited from earlier work.
Data set [4] concerns E. coli strain K12 3000. The data set is described as follows: Antibacterial assay, microdilution MIC (Example 2). Format: cell-based. The conditions noted are these: minimum concentration at which E. coli growth is completely inhibited. How it is done:
Antibacterial assay. The antibacterial activity of the peptides was analyzed using the standard microdilution approach (Wang et al. (2005) J. Biol. Chem., 280:5803-5811). In brief, a small culture of E. coli strain K12 3000 was grown overnight. A fresh culture was inoculated with a small aliquot of the overnight culture and incubated at 37° C. until the culture reached the logarithmic stage (A600 ˜0.5, 9×10^8 cells/ml). The culture was then diluted to A600 ˜0.001 and partitioned into a 96-well plate with ˜10^6 cells per well (90 μl each). Then, 10 μl aliquots of the peptide at different concentrations (three assays for each) were added to the cultures, allowing the minimum inhibition concentration (MIC) to be measured. The plate was then further incubated overnight (˜16 hours) at 37° C. and read on an Ultra Microplate Reader at 620 nm (Bio-TEK Instruments).

The mark [5] stands for this setting: minimum inhibitory concentration, wild type E. coli K12, overnight (~16 hours) at 37° C.

Read-outs that look alike come from different tables or passages of the source. Square brackets hold non-standard residues; d marks the D form. Ends that are not written are not given here. Peptide text beside a SMILES is read from it. Phg = N[C@H](C(=O)O)c1ccccc1

Turning to `CC[C@H](C)[C@H](NC(=O)[C@H](CCCCN)NC(=O)[C@H](CCCCN)NC(=O)[C@@H](NC(=O)[C@@H](NC(=O)[C@H](CC(=O)O)NC(=O)[C@H](Cc1ccccc1)NC(=O)[C@H](CC(C)C)NC(=O)CN)[C@@H](C)CC)[C@@H](C)CC)C(=O)N[C@@H](C)C(=O)N[C@@H](CCC(=O)O)C(=O)N[C@@H](CO)C(=O)N[C@H](C(N)=O)c1ccccc1` [F13X-aurein 1.2, GLFDIIKKIAESX] (H-GLFDIIKKIAES[Phg]-NH2; N-terminus and C-terminus assumed), in data set [1], the “retention time on reversed-phase HPLC (hydrophobicity)” value (“retention time on reversed-phase HPLC” below) was found to be 38.3 min and the “tRP, retention time on a reverse-phase column of HPLC as a measure of hydrophobicity” value (“tRP … of HPLC as a measure of hydrophobicity” for short) stood at 38.3 min.
Turning to `CC[C@H](C)[C@H](NC(=O)[C@H](CCCCN)NC(=O)[C@H](CCC(=O)O)NC(=O)[C@H](CCCCN)NC(=O)[C@H](CO)NC(=O)[C@H](CCCCN)NC(=O)[C@H](CCCNC(=N)N)NC(=O)[C@H](Cc1ccccc1)NC(=O)[C@H](Cc1ccccc1)NC(=O)[C@H](CC(=O)O)NC(=O)CNC(=O)[C@H](CC(C)C)NC(=O)[C@@H](N)CC(C)C)C(=O)NCC(=O)N[C@@H](CCCCN)C(=O)N[C@@H](CCC(=O)O)C(=O)N[C@@H](Cc1ccccc1)C(=O)N[C@@H](CCCCN)C(=O)N[C@@H](CCCNC(=N)N)C(=O)N[C@H](C(=O)N[C@H](C(=O)N[C@@H](CCC(N)=O)C(=O)N[C@@H](CCCNC(=N)N)C(=O)N[C@H](C(=O)N[C@@H](CCCCN)C(=O)N[C@@H](CC(=O)O)C(=O)N[C@@H](Cc1ccccc1)C(=O)N[C@@H](CC(C)C)C(=O)N[C@@H](CCCNC(=N)N)C(=O)N[C@@H](CC(N)=O)C(=O)N[C@@H](CC(C)C)C(=O)N[C@H](C(=O)N1CCC[C@H]1C(=O)N[C@@H](CCCNC(=N)N)C(=O)N[C@H](C(=O)N[C@@H](CCC(=O)O)C(=O)N[C@@H](CO)C(=O)O)[C@@H](C)O)C(C)C)[C@@H](C)CC)C(C)C)[C@@H](C)CC` [LL-37, reference compound], the “E. Coli MIC” value in the data set with wild type E. coli K12 (setting [5]) came out at 40 µM. Moreover, the MIC in the data set on Escherichia coli D21 is 5 to 25 µM.
In the case of “FKRIVQRIKDFLR-NH2 [LL-37(17-29), FKRIVQRIKDFLR]”, the CC50 at 68 h in data set [2] came out at 55 ± 2 µM. Also, in the data set on wild type E. coli K12 (setting [5]), the “E. Coli MIC” value turned out to be 40 µM. Besides, the “KB LC50” value in the data set with drug-sensitive KB came to 57 ± 3 µM. In addition, the CC50 in the data set with drug-resistant KBv is 60 µM.
For the compound “FKRIVQRIKDFLRNLV-NH2 [LL-37(17-32), FKRIVQRIKDFLRNLV]”, the CC50 at 68 h in data set [2] was 25 ± 1 µM. Besides, the “E. Coli MIC” value in the data set on wild type E. coli K12 (K12, 16 h) is 20 µM. The “KB LC50” value in the data set on drug-sensitive KB stood at 30 ± 1 µM. In addition, the CC50 in the data set on drug-resistant KBv is 30 µM.
Regarding “GLFDIIKKIAESF [aurein 1.2, antimicrobial and anticancer peptide isolated from the Australian Bell Frog, reference compound]”, in data set [1], the “retention time on reversed-phase HPLC” value is 43 min; the “tRP, retention time on a reversed-phase HPLC column as a measure of hydrophobicity” value worked out at 42.0 min; the “tRP … of HPLC as a measure of hydrophobicity” value stood at 43.0 min. Also, the MIC with E. coli strain K12 3000 [3] was 75 µM.
As to “GLFDIIKKIAESW-NH2 (C-terminus assumed) [F13W-aurein 1.2, GLFDIIKKIAESW]”, the minimal inhibitory concentration (MIC) in the data set with E. coli strain K12 3000 [4] is 320 µM. For the same compound, the “tRP … of HPLC as a measure of hydrophobicity” value in data set [1] is recorded as 40.5 min.
“GLFDKLKSLVSDDKK [anchor, bacterial membrane anchor of glucose-specific enzyme IIA of E. coli, reference compound]”: in data set [1], the “retention time on reversed-phase HPLC” value amounted to 29.5 min; the “tRP, retention time on a reversed-phase HPLC column as a measure of hydrophobicity” value is listed as 29.5 min; the “tRP … of HPLC as a measure of hydrophobicity” value amounted to 29.5 min.
Consider “IGKEFKRIVQRIKDFLRNLVPRTES [LL-37(13-37)]”, for which the CC50 at 68 h in data set [2] is 38 ± 3 µM. The “E. Coli MIC” value in the data set on wild type E. coli K12 (K12, 16 h) was found to be 80 µM. In the data set with drug-sensitive KB, the “KB LC50” value is 40 ± 0 µM. Also, the CC50 with drug-resistant KBv came to 39 µM.
As for “LLGDFFRKSKEK [LL-37(1-12), LLGDFFRKSKEK]”, in data set [2], the CC50 at 68 h is greater than 320 µM. The CC50 in the data set with drug-resistant KBv was greater than 320 µM.
In the case of “LLGDFKRIVQRIKDF-NH2 [LL-37(1-4, 17-27), LLGDFKRIVQRIKDF]”, the CC50 at 68 h in data set [2] was greater than 320 µM. For the same compound, the “E. Coli MIC” value in the data set with wild type E. coli K12 (setting [5]) is 250 µM. The CC50 in the data set on drug-resistant KBv is greater than 320 µM.
Turning to “RLFDKIRQVIRKF-NH2 (C-terminus assumed) [LLAA, RLFDKIRQVIRKF]”, in data set [1], the “retention time on reversed-phase HPLC” value amounted to 30.8 min and the “tRP … of HPLC as a measure of hydrophobicity” value was 30.8 min.
